US20080269237A1, “CARBAMIC ACID COMPOUNDS COMPRISING A PIPERAZINE LINKAGE AS HDAC INHIBITORS” (TOPOTARGET UK LIMITED, priority 2002, published 2008)
Like-named read-outs stand apart in the source and are kept apart here.

Key:
[1] = system: K11 (HPV E7 transformed human keratinocyte line); assay: Secondary assay: cell proliferation inhibition WST-1, K11; type: cell-based; conditions: K11, 48 h, read-out: Cell Proliferation Inhibition WST-1 (IC50 unless otherwise specified) K11
Source text: (§1) Compounds with HDAC inhibition activity, as determined using the primary assay, were subsequently evaluated using secondary cell-based assays. The following cell lines were used:
(§2) HeLa—Human cervical adenocarcinoma cell line (ATCC ref. No. CCL-2). K11—HPV E7 transformed human keratinocyte line provided by Pidder Jansen-Duerr, Institut für Biomedizinische Altemsforschung, Innsbruck, Austria. NHEK-Ad—Primary human adult keratinocyte line (Cambrex Corp., East Rutherford, N.J., USA).
(§3) Cells were plated in 96-well plates at 3-10×10^3 cells/well in 100 μL of culture medium. The following day, different concentrations of candidate compounds were added and the cells incubated at 37° C. for 48 h. Subsequently, 10 μL/well of WST-1 reagent was added and the cells reincubated for 1 hour. After the incubation time, absorbance was measured.
(§4) WST-1 is a tetrazolium salt which is cleaved to formazan dye by cellular enzymes. An expansion in the number of viable cells results in an increase in the overall activity of mitochondrial dehydrogenases in the sample. This augmentation in the enzyme activity leads to an increase in the amount of formazan dye formed, which directly correlates to the number of metabolically active cells in the culture. The formazan dye produced is quantified by a scanning multiwell spectrophotometer by measuring the absorbance of the dye solution at 450 nm wavelength (reference wavelength 690 nm).
(§5) Percent activity (% activity) in reducing the number of viable cells was calculated for each test compound as:
(§6) % activity={(S^C−B)/(S^o−B)}×100
(§7) IC50 values were calculated using the software package Prism 3.0 (GraphPad Software Inc., San Diego, Calif.), setting top value at 100 and bottom value at 0.

[2] = system: NHEK-Ad (primary human adult keratinocyte line); assay: Secondary assay: cell proliferation inhibition WST-1, NHEK-Ad; type: cell-based; conditions: NHEK-AD; 48 h; read-out: Cell Proliferation Inhibition WST-1 (IC50 unless otherwise specified) NHEK-AD
Source text: as §1, §2, §3
WST-1 is a tetrazolium salt which is cleaved to formazan dye by cellular enzymes. […] The formazan dye produced is quantified by a scanning multiwell spectrophotometer by measuring the absorbance of the dye solution at 450 nm wavelength (reference wavelength 690 nm).
Percent activity (% activity) in reducing the number of viable cells was calculated for each test compound as: […]
as §7

[3] = system: JURKAT (human T-cell line); assay: Secondary assay: cell proliferation inhibition WST-1, Jurkat; type: cell-based; conditions: 48 h, read-out: Cell Proliferation Inhibition WST-1 (IC50 unless otherwise specified) Jurkat
HDAC (HeLa cell extract) = assay: Primary assay: deacetylase activity, HeLa cell extract as source of HDAC; type: biochemical, human; conditions: for HDAC Inhibition HeLa, % @ 500 nM: 500 nM compound; for IC50: read-out: HDAC Inhibition (IC50 unless otherwise specified) HeLa; for HDAC Inhibition HeLa, % @ 100 nM: 100 nM compound
Protocol: Decreased activity indicates increased inhibition by the test compound.
Alternatively, the activity of the compounds as HDAC inhibitors was determined using a commercially available fluorescent assay kit: (Fluor de Lys™, BioMol Research Labs, Inc., Plymouth Meeting, USA).
Extensive comparative studies have shown that Primary Assay (1) and Primary Assay (2), discussed above, yield equivalent results. Primary Assay results reported herein are (a) exclusively from (1); (b) exclusively from (2); or (c) from both (1) and (2).
The HeLa cell extract was made from HeLa cells (ATCC Ref. No. CCL-2) by freeze-thawing three times in 60 mM TrisCl pH 8.0, 450 mM NaCl, 30% glycerol. Two cell volumes of extraction buffer were used, and particulate material was centrifuged out (20800 g, 4° C., 10 min). The supernatant extract having deacetylase activity was aliquoted and frozen for storage.
as §6

HeLa cells = assay: Secondary assay: cell proliferation inhibition WST-1, HeLa; type: cell-based; conditions: Homo sapiens, 48 h, read-out: Cell Proliferation Inhibition WST-1 (IC50 unless otherwise specified) HeLa
Source text: as §1, §2, §3, §4, §5, §6, §7

| melting point [°C] | IC50 (HDAC (HeLa cell extract)) [nM] | Compound | also measured |
| --- | --- | --- | --- |
|  |  | Nc1ccccc1NC(=O)c1ccc(CNC(=O)OCc2cccnc2)cc1 [MS-275, reference compound] | IC50 [1]: 9160 nM; IC50 [2]: 3100 nM; IC50 [3]: 365 nM |
| 157 to 159 |  | O=C(CCCCCC(=O)N1CCN(C(c2ccccc2)c2ccccc2)CC1)NO [PX117403, 7-(4-Benzhydryl-piperazin-1-yl)-7-oxo-heptanoic acid hydroxyamide] | HDAC Inhibition HeLa, % @ 500 nM (HDAC (HeLa cell extract)): 28% @ 500 nM |
| 107 to 109 |  | O=C(CCCCCC(=O)N1CCN(c2ccccc2)CC1)NO [PX117404, 7-Oxo-7-(4-phenyl-piperazin-1-yl)-heptanoic acid hydroxyamide] | HDAC Inhibition HeLa, % @ 500 nM (HDAC (HeLa cell extract)): 35% @ 500 nM |
|  |  | O=C(/C=C/c1cccc(S(=O)(=O)N2CCN(c3ccccc3)CC2)c1)NO [PX118490, (E)-N-Hydroxy-3-{3-[(4-phenyl-1-piperazinyl)sulfonyl]phenyl}-2-propenamide] | HDAC Inhibition HeLa, % @ 100 nM (HDAC (HeLa cell extract)): 59% @ 100 nM; IC50 (HeLa cells): 1000 nM; IC50 ([1]; Homo sapiens, Keratinocyte): 2490 nM; IC50 ([3]; Homo sapiens): 460 nM |
| 131 to 132 | 36 | O=C(CCCCCCC(=O)N1CCN(c2ccccc2Cl)CC1)NO [PX118791, 8-[4-(2-Chloro-phenyl)-piperazin-1-yl]-8-oxo octanoic acid hydroxyamide] |  |
| 122 to 124 | 34 | O=C(CCCCCCC(=O)N1CCN(c2cccc(Cl)c2)CC1)NO [PX118792, 8-[4-(3-Chloro-phenyl)-piperazin-1-yl]-8-oxo octanoic acid hydroxyamide] |  |
| 128 to 130 | 188 | O=C(CCCCCC(=O)N1CCN(c2ccccc2Cl)CC1)NO [PX118793, 7-[4-(2-Chloro-phenyl)-piperazin-1-yl]-7-oxo heptanoic acid hydroxyamide] |  |
| 120 to 122 | 74 | O=C(CCCCCC(=O)N1CCN(c2cccc(Cl)c2)CC1)NO [PX118794, 7-[4-(3-Chloro-phenyl)-piperazin-1-yl]-7-oxo heptanoic acid hydroxyamide] |  |
|  |  | O=C(/C=C/c1cccc(S(=O)(=O)N2CCN(c3ccccn3)CC2)c1)NO [PX118807, (E)-N-Hydroxy-3-{3-[(4-(2-pyridinyl)-1-piperazinyl)sulfonyl]phenyl}-2-propenamide] | HDAC Inhibition HeLa, % @ 100 nM (HDAC (HeLa cell extract)): 60% @ 100 nM |
| 190 | 46 | COc1ccccc1N1CCN(S(=O)(=O)c2cccc(/C=C/C(=O)NO)c2)CC1 [PX118810, (E)-N-Hydroxy-3-{3-[(4-(2-methoxyphenyl)-1-piperazinyl)sulfonyl]phenyl}-2-propenamide] |  |
| 183 | 42 | O=C(/C=C/c1cccc(S(=O)(=O)N2CCN(c3ccccc3Cl)CC2)c1)NO [PX118811, (E)-N-Hydroxy-3-{3-[(4-(2-chlorophenyl)-1-piperazinyl)sulfonyl]phenyl}-2-propenamide] |  |
| 201 | 26 | O=C(/C=C/c1cccc(S(=O)(=O)N2CCN(c3cccc(Cl)c3)CC2)c1)NO [PX118812, (E)-N-Hydroxy-3-{3-[(4-(3-chlorophenyl)-1-piperazinyl)sulfonyl]phenyl}-2-propenamide] |  |
| 133.5 to 134.5 | 133 | O=C(CCCCCCC(=O)N1CCN(C(=O)c2ccc3ccccc3c2)CC1)NO [PX118830, 8-[4-(Naphthalene-2-carbonyl)-piperazin-1-yl]-8-oxo octanoic acid hydroxyamide] |  |
| 100 to 101 | 194 | O=C(CCCCCCC(=O)N1CCN(C(=O)c2ccccc2)CC1)NO [PX118831, 8-(4-Benzoyl-piperazin-1-yl)-8-oxo octanoic acid hydroxyamide] |  |
| 90 to 92 | 212 | CN(C)c1ccc(C(=O)N2CCN(C(=O)CCCCCCC(=O)NO)CC2)cc1 [PX118832] |  |
| 150 to 150.5 | 286 | N#Cc1ccc(C(=O)N2CCN(C(=O)CCCCCCC(=O)NO)CC2)cc1 [PX118844, 8-[4-(4-Cyanobenzoyl)-piperazin-1-yl]-8-oxo octanoic acid hydroxyamide] |  |
| 149 to 150 | 3.4 | COc1ccc(N2CCN(C(=O)CCCCCCC(=O)NO)CC2)cc1 [PX118846, 8-[4-(4-Methoxyphenyl)-piperazin-1-yl]-8-oxo octanoic acid hydroxyamide] |  |
| 122 to 122.5 | 31 | COc1cccc(N2CCN(C(=O)CCCCCCC(=O)NO)CC2)c1 [PX118847, 8-[4-(3-Methoxyphenyl)-piperazin-1-yl]-8-oxo octanoic acid hydroxyamide] |  |
| 77 to 79 |  | CN(C)c1ccc(CC(=O)N2CCN(C(=O)CCCCCCC(=O)NO)CC2)cc1 [PX118848, 8-(4-{2-[4-(Dimethylamino)phenyl]acetyl}-1-piperazinyl)-N-hydroxy-8-oxooctanamide] | HDAC Inhibition HeLa, % @ 100 nM (HDAC (HeLa cell extract)): 44% @ 100 nM |
| 125 to 127 | 26 | O=C(CCCCCCC(=O)N1CCN(c2ccc([N+](=O)[O-])cc2)CC1)NO [PX118849, N-Hydroxy-8-[4-(4-nitrophenyl)-1-piperazinyl]-8-oxooctanamide] |  |
| 132 to 133.5 | 70 | O=C(CCCCCCC(=O)N1CCN(c2ncccn2)CC1)NO [PX118850, N-Hydroxy-8-oxo-8-[4-(2-pyrimidinyl)-1-piperazinyl]octanamide] |  |
|  |  | oxamflatin [reference compound] | IC50 [3]: 170 nM |

| Compound | melting point [°C] | IC50 (HDAC (HeLa cell extract)) [nM] | also measured |
| --- | --- | --- | --- |
| O=C(CCCCCCC(=O)N1CCN(C(c2ccccc2)c2ccccc2)CC1)NO [PX117764] | 126 to 129 | 785 | IC50 (HeLa cells): 29200 nM; IC50 ([1]; Homo sapiens, Keratinocyte): 9450 nM; IC50 ([3]; Homo sapiens): 2680 nM |
| COc1ccccc1N1CCN(C(=O)CCCCCCC(=O)NO)CC1 [PX117768, 8-[4-(2-Methoxy-phenyl)-piperazin-1-yl]-8-oxo-octanoic acid hydroxyamide] | 135 to 137 | 175 | IC50 (HeLa cells): 3300 nM; IC50 ([1]; Homo sapiens, Keratinocyte): 8670 nM; IC50 ([3]; Homo sapiens): 1040 nM |
